From patent US7943175B2, “Calixarene based dispersible colloidal systems in the form of nanoparticles” (Nanoport S.A., priority 2001, dated 2011)

System: embryo insect cells (trichiopusia ni)
Assay: Toxicity test on embryo insect cells
Assay type: cell-based
Source text: Second, p-dodecanoyl-calix[4]arene has been tested on embryo insect cells (trichiopusia ni). Viability values of more than 80% have been found.

CCCCCCCCCCCC(=O)c1cc2c(O)c(c1)Cc1cc(C(=O)CCCCCCCCCCC)cc(c1O)Cc1cc(C(=O)CCCCCCCCCCC)cc(c1O)Cc1cc(C(=O)CCCCCCCCCCC)cc(c1O)C2 [p-dodecanoyl-calix[4]arene]
Viability: more than 80%
